Measurements from ChEMBL document CHEMBL1201862, “PubChem BioAssay data set” (2004).
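Test compounds were applied to cells in 96-well plates for 48 hours at 5 doses. Here, GI50 denotes the concentration required for 50% inhibition of growth.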 Activity calls are given as the source filed them. No stated cut-off is given here; in the data, active = GI50 up to about 1.1 µM and inactive = higher.

Experiments:
Experiment in all cases: DTP human tumour cell line panel, 48 h
[1] = test system: MDA-N
[2] = test system: K562
[3] = test system: A498
[4] = test system: LOX IMVI
[5] = test system: NCI/ADR-RES
[6] = test system: OVCAR-8
[7] = test system: SK-MEL-2
[8] = test system: UACC-257
[9] = test system: MDA-MB-435
[10] = test system: CCRF-CEM
[11] = test system: Hs-578T
[12] = test system: HOP-62
[13] = test system: HT-29
[14] = test system: SN12C
[15] = test system: M14
[16] = test system: SW-620
[17] = test system: OVCAR-3
[18] = test system: HOP-92
[19] = test system: HCT-116
[20] = test system: HCT-15

Structure (SMILES)	GI50 [1]	GI50 [2]	GI50 [3]	GI50 [4]	GI50 [5]	GI50 [6]	GI50 [7]	GI50 [8]	GI50 [9]	GI50 [10]	GI50 [11]	GI50 [12]	GI50 [13]	GI50 [14]	GI50 [15]	GI50 [16]	GI50 [17]	GI50 [18]	GI50 [19]	GI50 [20] [µM]
CCN(CC)CCCNc1ccc2ncn3c4ccc(O)cc4c(=O)c1c23	6.08 µM (inactive)	1.04 µM (active)	4.45 µM (inactive)	0.392 µM (active)	> 10 µM (inactive)	0.467 µM (active)	3.7 µM (inactive)	11.5 µM (inactive)	> 10 µM (inactive)	0.166 µM (active)	0.39 µM (active)	0.989 µM (active)	0.649 µM (active)	0.637 µM (active)	3.3 µM (inactive)	0.578 µM (active)	8.69 µM (inactive)	0.718 µM (active)	0.441 µM (active)	2.71
CCCCCC(=O)Nc1[nH]nnc1C#N	> 100 µM (inactive)	> 100 µM (inactive)	> 100 µM (inactive)	> 100 µM (inactive)	> 100 µM (inactive)	> 100 µM (inactive)	> 100 µM (inactive)	> 100 µM (inactive)	> 100 µM (inactive)	> 100 µM (inactive)	> 100 µM (inactive)	> 100 µM (inactive)	> 100 µM (inactive)	> 100 µM (inactive)	> 100 µM (inactive)	> 100 µM (inactive)	> 100 µM (inactive)	> 100 µM (inactive)	> 100 µM (inactive)	> 100
COc1c2ccccc2c(OC)c2nc(C)ccc12	> 100 µM (inactive)	30.6 µM (inactive)	> 100 µM (inactive)	23.7 µM (inactive)	> 100 µM (inactive)	> 100 µM (inactive)	> 100 µM (inactive)	> 77.3 µM (inactive)	> 100 µM (inactive)	23.7 µM (inactive)	> 100 µM (inactive)	> 100 µM (inactive)	49.3 µM (inactive)	> 100 µM (inactive)	> 100 µM (inactive)	> 100 µM (inactive)	> 100 µM (inactive)	> 100 µM (inactive)	> 80.2 µM (inactive)	41.3
COC1(OC)N=C(N)C2(C#N)C(C)=C3NCN(C)N=C3C12C#N (stereo not given)	> 100 µM (inactive)	> 100 µM (inactive)	> 100 µM (inactive)	> 100 µM (inactive)	> 100 µM (inactive)	> 100 µM (inactive)	> 100 µM (inactive)	> 100 µM (inactive)	> 100 µM (inactive)	> 10 µM (inactive)	> 100 µM (inactive)	> 100 µM (inactive)	> 100 µM (inactive)	> 100 µM (inactive)	> 100 µM (inactive)	> 100 µM (inactive)	> 100 µM (inactive)	> 100 µM (inactive)	> 100 µM (inactive)	> 100
NC(CS)C(=O)NCCNc1ccc(NCCNC(=O)C(N)CS)c2c1C(=O)c1c(O)ccc(O)c1C2=O (stereo not given)	0.359 µM (active)	0.0468 µM (active)	0.0771 µM (active)	0.0185 µM (active)	0.126 µM (active)	0.0225 µM (active)	0.427 µM (active)	0.857 µM (active)	0.483 µM (active)	0.00149 µM (active)	0.137 µM (active)	0.00361 µM (active)	0.0897 µM (active)	0.00836 µM (active)	0.0248 µM (active)	0.0292 µM (active)	0.405 µM (active)	0.00638 µM (active)	0.0391 µM (active)	0.112
CC(=O)Nc1nc(C)c(S(=O)(=O)NC(=O)N2c3ccccc3CCc3ccccc32)s1	> 100 µM (inactive)	> 100 µM (inactive)	> 100 µM (inactive)	> 100 µM (inactive)	> 100 µM (inactive)	> 100 µM (inactive)	> 100 µM (inactive)	> 100 µM (inactive)	> 100 µM (inactive)	44.6 µM (inactive)	> 100 µM (inactive)	> 100 µM (inactive)	> 100 µM (inactive)	> 100 µM (inactive)	> 100 µM (inactive)	> 100 µM (inactive)	> 100 µM (inactive)	> 100 µM (inactive)	> 100 µM (inactive)	> 100
Nc1ccc(Cc2ccc(N)c(C(=O)O)c2)cc1C(=O)O	> 100 µM (inactive)	> 100 µM (inactive)	> 100 µM (inactive)	> 100 µM (inactive)	> 100 µM (inactive)	> 100 µM (inactive)	> 100 µM (inactive)	> 100 µM (inactive)	> 100 µM (inactive)	> 100 µM (inactive)	> 100 µM (inactive)	> 100 µM (inactive)	> 100 µM (inactive)	> 100 µM (inactive)	> 100 µM (inactive)	> 100 µM (inactive)	> 100 µM (inactive)	> 100 µM (inactive)	> 100 µM (inactive)	> 100
CC(Cl)CC(=O)OCC1CCCN2CCCCC12 (stereo not given)	> 100 µM (inactive)	> 100 µM (inactive)	> 100 µM (inactive)	> 100 µM (inactive)	> 100 µM (inactive)	> 100 µM (inactive)	> 100 µM (inactive)	> 100 µM (inactive)	> 100 µM (inactive)	> 100 µM (inactive)	> 100 µM (inactive)	> 100 µM (inactive)	> 100 µM (inactive)	> 100 µM (inactive)	> 100 µM (inactive)	> 100 µM (inactive)	> 100 µM (inactive)	> 100 µM (inactive)	> 100 µM (inactive)	> 100
COC(=O)[C@H](Cc1ccccc1)NC(=O)N1CCN(C(=O)N[C@@H](Cc2ccccc2)C(=O)OC)CCN(C(=O)N[C@@H](Cc2ccccc2)C(=O)OC)CC1	> 100 µM (inactive)	> 100 µM (inactive)	> 100 µM (inactive)	> 100 µM (inactive)	> 100 µM (inactive)	> 100 µM (inactive)	> 100 µM (inactive)	> 100 µM (inactive)	> 100 µM (inactive)	> 100 µM (inactive)	> 100 µM (inactive)	> 100 µM (inactive)	> 100 µM (inactive)	> 100 µM (inactive)	> 100 µM (inactive)	> 100 µM (inactive)	> 100 µM (inactive)	> 100 µM (inactive)	> 100 µM (inactive)	> 100
COc1ccccc1N1CCN(CCCCNC(=O)c2ccc([N+](=O)[O-])o2)CC1	3.18 µM (inactive)	12.4 µM (inactive)	9.79 µM (inactive)	1.12 µM (active)	20 µM (inactive)	10.6 µM (inactive)	4.97 µM (inactive)	4.1 µM (inactive)	3.36 µM (inactive)	21.1 µM (inactive)	15.5 µM (inactive)	5.18 µM (inactive)	2.74 µM (inactive)	3.27 µM (inactive)	4.05 µM (inactive)	8.22 µM (inactive)	4.52 µM (inactive)	16.6 µM (inactive)	10.3 µM (inactive)	3.48
Cc1cc(C)c(-n2c(C)c(C)c(C#N)c2N)c(C)c1	19.2 µM (inactive)	11 µM (inactive)	29.3 µM (inactive)	19.2 µM (inactive)	32.3 µM (inactive)	34.6 µM (inactive)	19.5 µM (inactive)	18.1 µM (inactive)	23 µM (inactive)	15.3 µM (inactive)	43.8 µM (inactive)	35.8 µM (inactive)	30.5 µM (inactive)	27.2 µM (inactive)	27.5 µM (inactive)	26.5 µM (inactive)	24.2 µM (inactive)	19 µM (inactive)	18.8 µM (inactive)	27.9
NC(CCP(=O)(O)O)C(=O)O (stereo not given)	> 100 µM (inactive)	> 100 µM (inactive)	> 100 µM (inactive)	> 100 µM (inactive)	> 100 µM (inactive)	> 100 µM (inactive)	> 100 µM (inactive)	> 100 µM (inactive)	> 100 µM (inactive)	> 100 µM (inactive)	> 100 µM (inactive)	> 100 µM (inactive)	> 100 µM (inactive)	> 100 µM (inactive)	> 100 µM (inactive)	> 100 µM (inactive)	> 100 µM (inactive)	> 100 µM (inactive)	> 100 µM (inactive)	> 100
